The numbers were not newly measured in patent publication US9060935B2, “Pharmaceutical lipid compositions” (CAMURUS AB, priority 2005, dated 2015), which cites them from elsewhere.

The conditions of data set [1]: room temperature.
The conditions of data set [2]: native GLP-1.

As for `CCCCCCCC/C=C\CCCCCCCC(=O)OCC(O)CO` (centres unmarked) [GMO, glycerol monooleate], the equilibrium water solubility in data set [1] is given as ~10^−7 M.
As for “GLP-1: native glucoregulatory hormone, 37-amino acid peptide with a MW of 4.2 KDa”, the plasma half-life entry in data set [2] is “below 2 minutes”.
